# Test results published in patent US7049094B2, “Methods for identifying modulators of N-type ion channel inactivation” (Wyeth, priority 1999, dated 2006).
# How the values were obtained:
# hKv1.4 channels = biological target: T1, hKv1.4 channels (Homo sapiens, UniProt P22459); experiment: Elimination of N-type inactivation of hKv1.4 channels (CHO cells); format: cell-based; details: glutathione keeps channels in reduced (inactivating) state
# T1 construct: expressed in transfected cells; host or cells: CHO cells
# Experimental: Compounds active in the yeast assay were examined for their ability to disrupt N-type Kv channel inactivation in CHO cells transfected with hKv1.1 alone, hKv1.1 plus hKvβ1, or hKv1.4, and in Xenopus oocytes injected with the corresponding mRNA's. […] This “disinactivating” effect was potent and dose dependent, with an IC50 ranging from 0.3 μM to […] in CHO cells and a 3–5 fold higher IC50 of 0.9 μM in oocytes. […] In addition to the disinactivating effect of these compounds, a parallel dose-dependent increase in peak current occurred simultaneously with the loss of inactivation. This increase in peak current is probably at least partially due to the removal of inactivation, which uncovers the “true” peak current of the channels in the cell, although other mechanisms such as a stabilization of the open state of the channel may also be occurring. […] At 100 μM, however, Compound “A” blocked approximately 37% of the hKv1.1 current in CHO cells, thus high concentrations of some of these compounds are able to block Kv1.1 channels.
# The mechanism of action of these Kv channel modulators (referred to herein as “disinactivators”) was further explored first by altering the voltage protocol so that single voltage steps to 50 mV were applied once every 20 sec (FIG. 8). […]
# PTZ-induced seizures = experiment: Protection against pentylenetetrazol-induced seizures; format: in vivo; details: Mus musculus; mice, I.P., 30 min before PTZ 85 mg/kg s.c.; read-out: estimated ED50, protection against PTZ-induced seizures
# Experimental: FIG. 8. Protection against pentelenetetrazol-induced seizures in the mouse. Adult male mice were treated with valproic acid (FIG. 8a), Compound A (FIG. 8b), and Compound B (FIG. 8c) at doses from 30–178 mg/kg i.p. (n=8/dose). Thirty minutes later, these animals were challenged with pentelenetetrazol (85 mg/kg, SC) and observed for onset of seizures during a 30 minute test period. The number of animals protected from seizures was plotted versus dose of test compound and ED50s were estimated from this dose-response data.
# The activities of Kv channel modulators were examined in several in vitro and in vivo seizure models. Field potential recordings were performed in the CA1 region of rat hippocampal slices treated with 10 μM bicuculline to induce multiple population spikes (Albus, H. and R. Williamson, Epilepsia (1998) 39(2):124–139). […] To test this hypothesis directly, the disinactivators were examined for their ability to protect mice from pentylenetetrazol-induced seizures. Mice were pretreated with Compound “D” or Compound “E” (30–300 mg/kg i.p.), valproic acid (156 mg/kg i.p.) or saline. Thirty minutes later, pentylenetetrazol (PTZ; 85 mg/kg, s.c.) was administered and the mice were monitored for development of spontaneous, recurrent seizures (a seizure was defined as loss of righting reflex; see Frey, H.-H. and I. Bartels, Epilepsy Res. (1997) 27:151–164). […]
# T1 sequence (P22459 whole entry): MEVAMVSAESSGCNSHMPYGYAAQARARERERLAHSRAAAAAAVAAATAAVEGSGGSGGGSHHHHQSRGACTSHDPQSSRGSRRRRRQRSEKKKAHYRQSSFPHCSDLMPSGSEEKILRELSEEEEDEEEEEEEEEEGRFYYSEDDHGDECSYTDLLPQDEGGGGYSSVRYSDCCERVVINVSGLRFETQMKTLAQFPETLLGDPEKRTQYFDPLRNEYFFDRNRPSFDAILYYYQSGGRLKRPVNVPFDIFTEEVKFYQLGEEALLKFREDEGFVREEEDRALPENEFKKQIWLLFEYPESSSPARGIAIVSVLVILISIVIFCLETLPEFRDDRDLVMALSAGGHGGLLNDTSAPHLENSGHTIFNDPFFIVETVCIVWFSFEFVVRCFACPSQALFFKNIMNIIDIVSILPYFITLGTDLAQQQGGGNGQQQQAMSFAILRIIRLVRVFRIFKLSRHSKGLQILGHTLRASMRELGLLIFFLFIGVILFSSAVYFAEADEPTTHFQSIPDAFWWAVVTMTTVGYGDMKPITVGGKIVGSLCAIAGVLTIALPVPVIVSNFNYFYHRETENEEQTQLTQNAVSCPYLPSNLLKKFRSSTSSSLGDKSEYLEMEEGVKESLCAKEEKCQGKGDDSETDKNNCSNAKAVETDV
Structure (SMILES),disinactivation of hKv1.4 with glutathione applied (hKv1.4 channels),ED50 (PTZ-induced seizures) [mg/kg]
"OO [Compound H2O2, H2O2]",Glutathione was able to block the disinactivation,–
CCCC(CCC)C(=O)O [valproic acid],–,141
